Data published in patent publication US8298798B2, “Production of C5-C8 alcohols using evolved enzymes and metabolically engineered microorganisms” (The Regents of the University of California, priority 2008, dated 2012).

Target: F381L/V461A KIVD (Lactococcus lactis, UniProt A0A0B8QZ66, form not given/V461A)
Experiment: coupled enzymatic assay of KIVD decarboxylation activity
Format: biochemical
Conditions: substrate of V461A/F381L KIVD, 30° C., pH 6.8
From the text: Protein Expression and Purification. Both gene fragments encoding wild type and F381L/V461A KIVD were amplified from plasmid pZE_LeuABCDKA6 using primers hiskivd_tevfwd and hiskivd_bamrev. After digestion with BamHI, the gene fragments were inserted into expression plasmid pQE9 (Qiagen) to yield pQE_hiskivd_wt and pQE_hiskivd_FL. The ADH6 gene fragment was amplified from yeast genomic DNA using primers hisadh_tevfwd and hisadh_bamrev, digested with BamHI and inserted into pQE9 to generate pQE_hisadh6. Similarly, genes encoding G462D and G462D/S139G LeuA were amplified from plasmid pZE_LeuABCDKA6 using primers hisleua_tevfwd and hisleua_bamrev. After digestion with BamHI, the PCR products were ligated into pQE9 to create pQE_hisleua_GD and pQE_hisleua_GS. […]
Enzymatic Assay of KIVD. […] Inc. Protein concentration was determined by measuring UV absorbance at 280 nm. The decarboxylation activity of KIVD was measured at 30° C. using a coupled enzymatic assay method. […] The reactions were started by adding 2 μl KIVD (final concentration: for KIV, 20 nM wt KIVD, 200 nM F381L/V461A KIVD; for KHV, 50 nM both), and the consumption of NADPH was monitored at 340 nm (extinction coefficient, 6.22 mM^−1 cm^−1). Kinetic parameters (kcat and Km) were determined by fitting initial velocity data to the Michaelis-Menten equation using Origin.

SMILES | Km
CC(C)C(=O)C(=O)O [2-Ketoisovalerate] | 7.7 mM
CC[C@H](C)CC(=O)C(=O)O [(S)-2-keto-4-methylhexanoate] | 0.22 mM
